Laboratory results: US9630947B2, “Therapeutic compounds and related methods of use” (OTSUKA PHARMACEUTICAL CO., LTD., priority 2009, dated 2017)
pIC50: −log10 of the molar value.

target: T1, purified STEP46 enzyme (Homo sapiens, UniProt P54829); assay: STEP46 biochemical assay (DiFMUP fluorescence phosphatase assay); conditions: DiFMUP 10 μM, read-out: STEP IC50
T1 sequence (P54829 1-565): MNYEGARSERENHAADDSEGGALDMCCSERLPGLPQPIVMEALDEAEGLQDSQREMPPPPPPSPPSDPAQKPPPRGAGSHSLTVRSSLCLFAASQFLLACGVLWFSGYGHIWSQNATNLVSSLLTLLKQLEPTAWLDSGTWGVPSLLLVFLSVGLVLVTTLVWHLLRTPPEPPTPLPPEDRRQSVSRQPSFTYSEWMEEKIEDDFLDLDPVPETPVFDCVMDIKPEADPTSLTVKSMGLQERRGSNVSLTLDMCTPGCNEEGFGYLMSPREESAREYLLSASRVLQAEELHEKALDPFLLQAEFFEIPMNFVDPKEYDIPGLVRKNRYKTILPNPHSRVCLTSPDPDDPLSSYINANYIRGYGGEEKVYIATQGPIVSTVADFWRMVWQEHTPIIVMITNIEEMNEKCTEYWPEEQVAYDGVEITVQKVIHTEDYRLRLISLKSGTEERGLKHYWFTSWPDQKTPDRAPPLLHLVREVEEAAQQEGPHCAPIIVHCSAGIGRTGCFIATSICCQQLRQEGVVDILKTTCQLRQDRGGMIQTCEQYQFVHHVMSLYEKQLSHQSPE
Experimental: STEP46 Biochemical Assays
Serial dilutions of compounds were performed in 100% DMSO and 1 uL of compounds were dispensed into 384-well black polystyrene plates (Corning, NY). Compounds were incubated with 24 uL of buffer containing 50 mM Hepes, 1 mM DTT, 0.02% Brij35, 1 ng/well purified STEP46 enzyme for 30 min at room temperature. The reaction was initiated by addition of 25 uL of DiFMUP (6, 8-difluoro-4-methylumbelliferyl phosphate) (InVitrogen, CA) with a final concentration of 10 μM and incubated at 27° C. for 90 min. Final DMSO concentration is 2%. Plates were read with florescence intensity at excitation/emission of 360/460 nm using a PheraStar plate reader (BMG Labtech, NC).
Data were expressed as percentage (%) inhibition of enzyme activity. 0% inhibition is defined as the RFUs (relative fluorescence units) in the absence of compounds and 100% inhibition is defined as RFUs in the absence of STEP46 enzyme. IC50 values of compounds with inhibitory activity against STEP46 were determined by GraphPad Prism (version 4.03) using four parameter logistic equation. Some compounds act as activators. For compounds showing STEP46 enzymatic activation, data are represented as percentage of inhibition but with negative values at three representative concentrations (25, 50 and 100 uM).

pIC50 | SMILES
> 6.00 | Fc1ccc(-c2ccc3c(Nc4ccc(F)c(Cl)c4)nc(-c4cccnc4)nc3c2)c(F)c1 [Compound 698]
> 6.00 | COc1ccc2nc(-c3cccnc3)nc(Nc3nnc(-c4ccc(Cl)cc4)s3)c2c1 [Compound 412]
5.00 to 6.00 | CN(C)c1nc(-c2cccnc2)nc2ccc(-c3cccc([N+](=O)[O-])c3)cc12 [Compound 1335]
5.00 to 6.00 | Fc1cccc(-c2ccc3nc(-c4cccnc4)nc(Nc4ccc(F)c(Cl)c4)c3c2)c1 [Compound 634]
5.00 to 6.00 | COc1ccccc1-c1ccc2nc(-c3cccnc3)nc(Nc3ccc(F)c(Cl)c3)c2c1 [Compound 637]
5.00 to 6.00 | COc1ccc2nc(-c3cccnc3)nc(Nc3ccc4oc(=O)n(C)c4c3)c2c1 [Compound 318]
5.00 to 6.00 | CNc1nc(-c2cccnc2)nc2c(C)cc(-c3ccc(C#N)cc3)cc12 [Compound 1279]
5.00 to 6.00 | COc1ccc2nc(-c3cccnc3)nc(Nc3nc(-c4cccc(C(F)(F)F)c4)cs3)c2c1 [Compound 449]
5.00 to 6.00 | NC(=O)c1ccccc1-c1ccc2c(Nc3ccc(F)c(Cl)c3)nc(-c3cccnc3)nc2c1 [Compound 683]
5.00 to 6.00 | COc1ccc2nc(-c3cccnc3)nc(Nc3ccc(F)cc3Cl)c2c1 [Compound 933]
> 6.00 | Cc1ccc(-c2ccc3c(Nc4ccc(F)c(Cl)c4)nc(-c4cccnc4)nc3c2)cc1 [Compound 695]
5.00 to 6.00 | COc1ccc2nc(-c3cccnc3)nc(Nc3ccccc3C(=O)NCCC(F)(F)F)c2c1 [Compound 899]
5.00 to 6.00 | CNc1nc(-c2cccnc2)nc2cc(-c3ccc(C#N)cc3)ccc12 [Compound 1365]
> 6.00 | Clc1ccc2c(Nc3ccc(Cl)c(Cl)c3)nc(-c3cnccn3)nc2c1 [Compound 1140]
> 6.00 | COc1ccc2nc(-c3cccnc3)nc(Nc3ccc4c(C)cc(=O)oc4c3)c2c1 [Compound 316]
5.00 to 6.00 | Fc1ccc(Nc2nc(-c3ccnnc3)nc3cc(Cl)ccc23)cc1Cl [Compound 1201]
> 6.00 | COc1ccc2nc(-c3cccnc3)nc(Nc3nc(-c4ccccc4Br)cs3)c2c1 [Compound 451]
5.00 to 6.00 | CNc1nc(-c2cccnc2)nc2c(C)c(-c3cccc(C#N)c3)ccc12 [Compound 1453]
5.00 to 6.00 | COc1ccc2nc(-c3cccnc3)nc(Nc3nc(-c4ccccc4)c(C(N)=O)s3)c2c1 [Compound 1125]
5.00 to 6.00 | COc1cccc(-c2ccc3nc(-c4cccnc4)nc(Oc4ccc(Cl)c(Cl)c4)c3c2)c1 [Compound 391]

pIC50 | SMILES
5.00 to 6.00 | CNc1nc(-c2cccnc2)nc2cc(-c3cccc(C(C)=O)c3)ccc12 [Compound 1350]
5.00 to 6.00 | COc1ccc2nc(-c3cccnc3)nc(Nc3ccc4ccc(=O)oc4c3)c2c1 [Compound 330]
5.00 to 6.00 | CNc1nc(-c2cccnc2)nc2cc(-c3ccc(Cl)cc3)ccc12 [Compound 1354]
5.00 to 6.00 | Fc1ccc(Nc2nc(-c3cccnc3)nc3cc(-c4cccc(F)c4F)ccc23)cc1Cl [Compound 697]
< 5.00 | Fc1ccc(Nc2nc(-c3cccnc3)nc3ccc(-c4ccccc4Cl)cc23)cc1Cl [Compound 636]
5.00 to 6.00 | Cc1cc(Cl)cc2c(Nc3ccccc3C(N)=O)nc(-c3cnccn3)nc12 [Compound 1226]
< 5.00 | CNc1nc(-c2cccnc2)nc2cc(-c3ccccc3OC)c(C)cc12 [Compound 1411]
> 6.00 | CCOc1ccc2nc(-c3cccnc3)nc(Nc3ccc4ccc(=O)[nH]c4c3)c2c1 [Compound 335]
> 6.00 | Cc1ccc(F)c(-c2ccc3nc(-c4cccnc4)nc(Nc4ccc(F)c(Cl)c4)c3c2)c1 [Compound 669]
> 6.00 | COc1ccc2nc(-c3cccnc3)nc(Nc3c(F)cccc3Cl)c2c1 [Compound 934]
5.00 to 6.00 | Fc1ccc(-c2ccc3nc(-c4cccnc4)nc(Nc4ccc(F)c(Cl)c4)c3c2)cc1 [Compound 638]
5.00 to 6.00 | CNc1nc(-c2cccnc2)nc2cc(-c3cccc(F)c3)c(C)cc12 [Compound 1402]
> 6.00 | NC(=O)c1ccccc1Nc1nc(-c2cccnc2)nc2cc(Br)ccc12 [Compound 699]
5.00 to 6.00 | CNc1nc(-c2cccnc2)nc2cc(-c3ccc(F)c(F)c3)c(C)cc12 [Compound 1407]
> 6.00 | COc1ncc(-c2ccc3nc(-c4cccnc4)nc(Nc4ccc(F)c(Cl)c4)c3c2)cn1 [Compound 666]
5.00 to 6.00 | Cc1cccc2c(Nc3cc(Cl)cc(Cl)c3)nc(-c3cnccn3)nc12 [Compound 1180]
> 6.00 | Fc1ccc(Nc2nc(-c3cnccn3)nc3cc(Cl)ccc23)cc1Cl [Compound 1141]
5.00 to 6.00 | COc1ccc2nc(-c3cccnc3)nc(Nc3nc(-c4ccc(F)cc4F)cs3)c2c1 [Compound 446]
5.00 to 6.00 | CNc1nc(-c2cccnc2)nc2c(C)c(-c3cccc(OC)c3)ccc12 [Compound 1456]
5.00 to 6.00 | COc1ccc2nc(-c3cccnc3)nc(Nc3ccc4ccsc4c3)c2c1 [Compound 309]

pIC50 | SMILES
5.00 to 6.00 | CNc1nc(-c2cccnc2)nc2ccc(-c3cccc(-c4ccccc4)c3)cc12 [Compound 1346]
5.00 to 6.00 | COc1cccc(-c2ccc3nc(-c4cccnc4)nc(Oc4ccc(F)c(F)c4)c3c2)c1 [Compound 392]
5.00 to 6.00 | Fc1ccc(Nc2nc(-c3cccnc3)nc3ccc(-c4cccs4)cc23)cc1Cl [Compound 649]
5.00 to 6.00 | COc1ccc2nc(-c3cccnc3)nc(Nc3nc4ccccc4n3C)c2c1 [Compound 407]
< 5.00 | CNc1nc(-c2cccnc2)nc2c(C)c(-c3cccc(F)c3)ccc12 [Compound 1449]
< 5.00 | CNc1c(-c2ccc(C#N)cc2)ccc2nc(-c3cccnc3)nc(C)c12 [Compound 1424]
5.00 to 6.00 | CN(C)c1nc(-c2cccnc2)nc2ccc(-c3cccc(F)c3F)cc12 [Compound 1380]
5.00 to 6.00 | COc1ccc(OC)c(-c2ccc3nc(-c4cccnc4)nc(Nc4ccc(F)c(Cl)c4)c3c2)c1 [Compound 645]
5.00 to 6.00 | COc1ccc2nc(-c3cccnc3)nc(Nc3nc(-c4ccc(Cl)cc4)c(C)s3)c2c1 [Compound 461]
5.00 to 6.00 | CNc1nc(-c2cccnc2)nc2ccc(-c3ccc(F)cc3F)cc12 [Compound 1611]
5.00 to 6.00 | COc1ccc2nc(-c3ccnnc3)nc(Nc3cccc(OC(F)(F)F)c3)c2c1 [Compound 1188]
5.00 to 6.00 | CNc1nc(-c2cccnc2)nc2ccc(-c3cccc4sccc34)cc12 [Compound 1340]
5.00 to 6.00 | COc1ccc2nc(-c3cccnc3)nc(Nc3cccc4c3OC(F)(F)C(F)(F)O4)c2c1 [Compound 342]
> 6.00 | CNc1nc(-c2cccnc2)nc2c(C)c(-c3ccc(C#N)cc3)ccc12 [Compound 1452]
5.00 to 6.00 | CNc1nc(-c2cccnc2)nc2cc(-c3ccc(F)c(F)c3)ccc12 [Compound 1373]
5.00 to 6.00 | NC(=O)c1ccccc1Nc1nc(-c2cccnc2)nc2cc(-c3ccc(F)cc3)ccc12 [Compound 701]
5.00 to 6.00 | COc1cccc(-c2ccc3nc(-c4cccnc4)nc(Nc4ccc(F)c(Cl)c4)c3c2)c1OC [Compound 644]
5.00 to 6.00 | Fc1ccc(-c2ccc3c(Nc4cccc(OC(F)(F)F)c4)nc(-c4cccnc4)nc3c2)cc1 [Compound 708]
> 6.00 | COc1ccc(-c2csc(Nc3nc(-c4cccnc4)nc4ccc(OC)cc34)n2)cc1 [Compound 435]
> 6.00 | COc1ccc2nc(-c3cccnc3)nc(Nc3ccc4ccc(=O)[nH]c4c3)c2c1 [Compound 325]
